The test system of this data set is rodent carcinogenicity bioassays, tumor incidence. The data set is described as follows: CCRIS carcinogenicity studies. A digest of the protocol: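 NCI-built, expert-reviewed records of carcinogenicity and related test outcomes (mutagenicity, tumor promotion/inhibition) compiled from published and report sources, historical span 1985-2011, not updated.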

Active and inactive are the calls of the source. No rule for the calls is given here.

Turning to `NC(Cc1cnc[nH]1)C(=O)O` (stereo unspecified), the carcinogen call was “inactive; negative” (Species: RAT, Strain/Sex: F344/FEMALE, Route: ORAL, Dose: 0, 1.25, 2.5% IN DIET FOR 104 WK (STUDY DURATION: 107 WK), Dose: 0, 1.25, 2.5% IN DIET FOR 104 WK (STUDY DURATION: 107 WK)) and “inactive; negative” (Species: RAT, Strain/Sex: F344/MALE, Route: ORAL, Dose: 0, 1.25, 2.5% IN DIET FOR 104 WK (STUDY DURATION: 107 WK), Dose: 0, 1.25, 2.5% IN DIET FOR 104 WK (STUDY DURATION: 107 WK)).
With `COc1ccc(C(c2ccc(OC)cc2)C(Cl)(Cl)Cl)cc1`, the carcinogen call was “inactive; negative” (Species: MOUSE, Strain/Sex: B6C3F1/FEMALE, Route: ORAL, Dose: 0, 997, 1994 PPM IN DIET, TWA, Dose: 0, 997, 1994 PPM IN DIET, TWA); “inactive; negative” (Species: MOUSE, Strain/Sex: B6C3F1/MALE, Route: ORAL, Dose: 0, 1746, 3491 PPM IN DIET, TWA, Dose: 0, 1746, 3491 PPM IN DIET, TWA); “active; positive” (Species: MOUSE, Strain/Sex: BALB/MALE, Route: ORAL, Dose: 750 PPM IN DIET, Tumor Site: Type of Lesion: TESTES: INTERSTITIAL CELL CARCINOMA); “inactive; negative” (Species: RAT, Strain/Sex: OSBORNE-MENDEL/FEMALE, Route: ORAL, Dose: 0, 750, 1385 PPM IN DIET, TWA, Dose: 0, 750, 1385 PPM IN DIET, TWA); “inactive; negative” (Species: RAT, Strain/Sex: OSBORNE-MENDEL/MALE, Route: ORAL, Dose: 0, 448, 845 PPM IN DIET, TWA, Dose: 0, 448, 845 PPM IN DIET, TWA).
For `Oc1c(Cl)cc(Cl)cc1Cl`, the carcinogen call (Species: MOUSE, Strain/Sex: B6C3F1/FEMALE, Route: ORAL, Dose: 0, 5214, 10428 PPM IN DIET, Dose: 0, 5214, 10428 PPM IN DIET, Tumor Site: Type of Lesion: LIVER: HEPATOCELLULAR CARCINOMA OR ADENOMA) was “active; positive”; the carcinogen call (Species: MOUSE, Strain/Sex: B6C3F1/MALE, Route: ORAL, Dose: 0, 5000, 10000 PPM IN DIET, Dose: 0, 5000, 10000 PPM IN DIET, Tumor Site: Type of Lesion: LIVER: HEPATOCELLULAR CARCINOMA OR ADENOMA) is “active; positive”; the carcinogen call (Species: RAT, Strain/Sex: F344/FEMALE, Route: ORAL, Dose: 0, 5000, 10000 PPM IN DIET, Dose: 0, 5000, 10000 PPM IN DIET) is “inactive; negative”; the carcinogen call (Species: RAT, Strain/Sex: F344/MALE, Route: ORAL, Dose: 0, 5000, 10000 PPM IN DIET, Dose: 0, 5000, 10000 PPM IN DIET, Tumor Site: Type of Lesion: HEMATOPOIETIC SYSTEM (LEUKEMIA): MONOCYTIC LEUKEMIA, LYMPHATIC SYSTEM: LYMPHOMA) is “active; positive”.
Regarding `N#[N+]c1ccc(O)cc1`, the carcinogen call reads like this: (Species: MOUSE, Strain/Sex: SWISS/FEMALE, Route: SUBCUTANEOUS, Dose: 0, 2 UG 1/WK FOR 36 WK (STUDY DURATION: 120 WK), Tumor Site: Type of Lesion: SUBCUTANEOUS TISSUE: TUMOR) “active; positive”; (Species: MOUSE, Strain/Sex: SWISS/FEMALE, Route: SUBCUTANEOUS, Dose: 0, 10 UG 1/WK FOR 2 WK (STUDY DURATION: 130 WK)) “inactive; negative”; (Species: MOUSE, Strain/Sex: SWISS/MALE, Route: SUBCUTANEOUS, Dose: 0, 2 UG 1/WK FOR 36 WK (STUDY DURATION: 110 WK), Tumor Site: Type of Lesion: SUBCUTANEOUS TISSUE: TUMOR) “active; positive”; (Species: MOUSE, Strain/Sex: SWISS/MALE, Route: SUBCUTANEOUS, Dose: 0, 10 UG 1/WK FOR 2 WK (STUDY DURATION: 130 WK)) “inactive; negative”.
As to `O=[N+]([O-])c1ccc(Nc2ccc(Nc3ccccc3)c(S(=O)(=O)O)c2)c([N+](=O)[O-])c1`, the carcinogen call reads like this: (Species: MOUSE, Strain/Sex: B6C3F1/FEMALE, Route: GAVAGE, Dose: 0, 250, 500 MG/KG IN CORN OIL 5D/WK FOR 103 WK (STUDY DURATION: 104 WK), Dose: 0, 250, 500 MG/KG IN CORN OIL 5D/WK FOR 103 WK (STUDY DURATION: 104 WK)) “inactive; negative”; (Species: MOUSE, Strain/Sex: B6C3F1/MALE, Route: GAVAGE, Dose: 0, 125, 250 MG/KG IN CORN OIL 5D/WK FOR 103 WK (STUDY DURATION: 104 WK), Dose: 0, 125, 250 MG/KG IN CORN OIL 5D/WK FOR 103 WK (STUDY DURATION: 104 WK)) “inactive; negative”; (Species: RAT, Strain/Sex: F344/FEMALE, Route: GAVAGE, Dose: 0, 375, 750 MG/KG IN CORN OIL 5D/WK FOR 103 WK (STUDY DURATION: 105 WK), Dose: 0, 375, 750 MG/KG IN CORN OIL 5D/WK FOR 103 WK (STUDY DURATION: 105 WK), Tumor Site: Type of Lesion: KIDNEY: TRANSITIONAL CELL CARCINOMA) “active; positive”; (Species: RAT, Strain/Sex: F344/MALE, Route: GAVAGE, Dose: 0, 375 MG/KG IN CORN OIL 5D/WK FOR 103 WK (STUDY DURATION: 104 WK)) “inactive; negative”.
Take `CO[C@@]12[C@H](COC(N)=O)C3=C(C(=O)C(C)=C(N)C3=O)N1C[C@@H]1N[C@@H]12`: the carcinogen call (Species: RAT, Route: INTRAPERITONEAL, Tumor Site: Type of Lesion: PERITONEAL CAVITY) was “active; positive” and the carcinogen call (Species: RAT, Route: INTRAVENOUS, Tumor Site: Type of Lesion: PERITONEAL CAVITY, MAMMARY GLAND, INTESTINES, Tumor Site: Type of Lesion: PERITONEAL CAVITY, MAMMARY GLAND, INTESTINES) was “active; positive”.
Take `CN1CSC(=S)N(C)C1`: the carcinogen call was “inactive; negative” (Species: Mouse, Strain/Sex: B6C3F1/Female (50/Group), Route: Oral, Dose: 0, 6, 22, 93 mg/kg in diet for 78 wk, study duration 78 wk, Dose: 0, 6, 22, 93 mg/kg in diet for 78 wk, study duration 78 wk); “inactive; negative” (Species: Mouse, Strain/Sex: B6C3F1/Male (50/Group), Route: Oral, Dose: 0, 4, 16, 68 mg/kg in diet for 78 wk, study duration 78 wk, Dose: 0, 4, 16, 68 mg/kg in diet for 78 wk, study duration 78 wk); “inactive; negative” (Species: Rat, Strain/Sex: Wistar/Female (50/Group), Route: Oral, Dose: 0, 0.35, 1.37, 5.66 mg/kg in diet for 2 yr, study duration 2 yr); “inactive; negative” (Species: Rat, Strain/Sex: Wistar/Male (50/Group), Route: Oral, Dose: 0, 0.27, 1.08, 4.43 mg/kg in diet for 2 yr, study duration 2 yr).
Take `COc1cc(C(C)(C)C)c(O)c(C(C)(C)C)c1`: the carcinogen call (Species: HAMSTER, Strain/Sex: SYRIAN/MALE, Route: ORAL, Dose: 1% IN DIET FOR 24 WK (STUDY DURATION: 24 WK)) was “inactive; negative”.

Source of the values: PubChem BioAssay AID1259411 (Chemical Carcinogenesis Research Information System (CCRIS), 2018).
